Results on two compounds are retold here after ChEMBL document CHEMBL1130665, “Synthesis and biological evaluation of a water soluble phosphate prodrug of 3-aminopyridine-2-carboxaldehyde thiosemicarbazone (3-AP)” (Bioorg Med Chem Lett, 1998).

A short description of data set [1]: Compound was evaluated for plasma clearance. The note with it: dog. It counts as ADME, organism-based, Canis lupus familiaris.
The species named for data set [2] is Canis familiaris. Briefly: Compound was evaluated for area under the curve in dog blood. It counts as ADME, organism-based, Canis lupus familiaris. The note with it: in vivo.
Data set [3] has as its system M109. Nature of the data set: In vivo antitumor activity evaluated against M-109 murine lung carcinoma cells in BALB/c mice administered intraperitoneally at a dose of 10 mg/kg. In kind it is functional, Mus musculus. The note with it: route intraperitoneal.
The test system of data set [4] is M109. Briefly: In vivo antitumor activity evaluated against M-109 murine lung carcinoma cells in BALB/c mice administered intraperitoneally at a dose of 4.5 mg/kg. In kind it is functional, Mus musculus. The note with it: route intraperitoneal.

In data set [1], `N/C(S)=N/N=C/c1ncccc1NC(=O)OCc1ccc(OP(=O)([O-])[O-])cc1.[Na+].[Na+]` had a clearance of 43.8 mL/min/kg. In data set [2], the AUC came out at 74.04 mg/min/L. In addition, the Tumor volume reduction in data set [3] is 46%.

`NC(=S)N/N=C/c1ncccc1N` [TRIAPINE] gave a clearance in data set [1] of 40.6 mL/min/kg. This compound came in with an AUC in data set [2] of 71.59 mg/min/L. The compound also showed a Tumor volume reduction in data set [4] of 30%.
